{"source": "ChEMBL document CHEMBL6182910", "about": "“Design, Synthesis, and Biological Evaluation of 4-(Difluoromethyl)-1H-imidazole-5-carboxylic Acids/4-(3-Cyanophenoxy)pyrimidine-5-carboxylic Acids as P2Y1 Receptor Antagonists for Ischemic Stroke Treatment” (J Med Chem, 2025)", "key": {"[1]": {"test": "Tmax male Sprague-Dawley rat at 10 mg/kg, iv measured up to 24 hrs by LC-MS/MS analysis", "assay_type": "ADME, organism-based", "conditions": "in vivo"}, "[2]": {"test": "Tmax male Sprague-Dawley rat at 10 mg/kg, po measured up to 24 hrs by LC-MS/MS analysis", "assay_type": "ADME, organism-based", "conditions": "in vivo"}, "[3]": {"molecular_target": "T1, CYP2A6 (Homo sapiens, UniProt P11509)", "T1 sequence (P11509 whole entry)": "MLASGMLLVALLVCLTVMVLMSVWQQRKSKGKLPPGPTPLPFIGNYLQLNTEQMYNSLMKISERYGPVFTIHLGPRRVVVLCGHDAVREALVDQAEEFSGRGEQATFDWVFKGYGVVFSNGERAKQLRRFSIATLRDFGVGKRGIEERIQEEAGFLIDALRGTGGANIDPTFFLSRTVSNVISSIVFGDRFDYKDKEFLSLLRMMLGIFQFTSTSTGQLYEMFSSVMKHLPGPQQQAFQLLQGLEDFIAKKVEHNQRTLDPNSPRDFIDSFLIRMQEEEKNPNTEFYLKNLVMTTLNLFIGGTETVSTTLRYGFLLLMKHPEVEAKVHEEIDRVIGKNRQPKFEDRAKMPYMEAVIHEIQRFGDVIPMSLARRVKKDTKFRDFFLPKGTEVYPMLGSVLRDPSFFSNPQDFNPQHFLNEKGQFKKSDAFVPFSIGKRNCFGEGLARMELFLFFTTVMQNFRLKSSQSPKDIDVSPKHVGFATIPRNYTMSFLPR", "test": "Inhibition of CYP2A6 in human liver microsomes using coumarin as substrate at 10 uM preincubated for 5 min followed by NADPH addition measured after 120 mins by LC-MS/MS analysis relative to control", "assay_type": "ADME, Microsome", "conditions": "probe coumarin, time 125 min"}, "[4]": {"test_system": "Rattus norvegicus", "test": "Neuroprotective activity in MCAO-induced brain damage Sprague-Dawley rat model assessed as improvement in hippocampal neuron damage administered intravenously immediately after arterial occlusion measured after 24 hrs by H and E staining based analysis", "assay_type": "functional, organism-based", "conditions": "dose 2.5-10 mg/kg, route iv"}, "[5]": {"test_system": "Rattus norvegicus", "test": "Neuroprotective activity in MCAO-induced brain damage Sprague-Dawley rat model assessed as plasma MDA level at 2.5 to 10 mg/kg, iv administered immediately after arterial occlusion measured after 24 hrs (reference value: 51.7 %)", "assay_type": "functional", "conditions": "dose 2.5-10 mg/kg"}, "[6]": {"test_system": "Rattus norvegicus", "test": "Neuroprotective activity in MCAO-induced brain damage Sprague-Dawley rat model assessed as brain infarction size at 5 mg/kg, iv administered immediately after arterial occlusion measured after 24 hrs by TTC staining based analysis (reference value: 43.1 %)", "assay_type": "functional"}, "[7]": {"test_system": "Rattus norvegicus", "test": "Neuroprotective activity in MCAO-induced brain damage Sprague-Dawley rat model assessed as brain infarction size at 10 mg/kg, iv administered immediately after arterial occlusion measured after 24 hrs by TTC staining based analysis (reference value: 43.1 %)", "assay_type": "functional"}, "[8]": {"test_system": "Plasma", "test": "Anti-platelet aggregation in platelet-rich plasma of male human assessed as inhibition of ADP-induced platelet aggregation preincubated for 15 mins followed by ADP addition measured up to 10 mins by Born's turbidometric method", "assay_type": "functional, cell-free"}, "[9]": {"test_system": "Rattus norvegicus", "test": "Neuroprotective activity in MCAO-induced brain damage Sprague-Dawley rat model assessed as reduction in brain infarction size at 5 mg/kg, iv administered immediately after arterial occlusion measured after 24 hrs by TTC staining based analysis relative to control", "assay_type": "functional", "set-up": "scale not given: the % may be the effect or the level left"}, "[10]": {"test_system": "Rattus norvegicus", "test": "Neuroprotective activity in MCAO-induced brain damage Sprague-Dawley rat model assessed as reduction in brain infarction size at 2.5 mg/kg, iv administered immediately after arterial occlusion measured after 24 hrs by TTC staining based analysis relative to control", "assay_type": "functional", "set-up": "scale not given: the % may be the effect or the level left"}, "[11]": {"test": "AUC in brain of male Kunming mouse at 10 mg/kg, iv measured for 0.083 to 24 hrs by LC-MS/MS analysis", "assay_type": "ADME, organism-based", "conditions": "in vivo, time 0.083-24 hrs"}, "[12]": {"test_system": "Rattus norvegicus", "test": "Anti-platelet aggregation in Sprague-Dawley rat assessed as inhibition of ADP-induced platelet aggregation at 10 mg/kg, po measured for 15 mins in presence of 5 uM ADP by cell counter analysis relative to control", "assay_type": "functional", "conditions": "0.25 h"}, "[13]": {"species_on_record": "Oryctolagus cuniculus", "test": "Antagonist activity at P2Y12 receptor in platelet-rich plasma of male Japanese white rabbit assessed as inhibition of VASP phosphorylation at Ser239 at 30 uM pretreated for 10 mins followed by PGE1/ADP addition measured after 10 mins by ELISA relative to control", "assay_type": "cell-free", "conditions": "time 20.0 min"}, "[14]": {"test_system": "Rattus norvegicus", "test": "Neuroprotective activity in MCAO-induced brain damage Sprague-Dawley rat model assessed as plasma MDA level at 2.5 to 10 mg/kg, iv administered immediately after arterial occlusion measured after 24 hrs (reference value: 7.93 nmol/ml)", "assay_type": "functional", "conditions": "dose 2.5-10 mg/kg"}, "[15]": {"test": "Ratio of AUC in brain to plasma of male Kunming mouse at 10 mg/kg, iv measured for 0.083 to 24 hrs by LC-MS/MS analysis", "assay_type": "ADME, organism-based", "conditions": "brain and plasma, time 0.083-24 hrs, read-out: Ratio AUC"}, "[16]": {"test_system": "Plasma", "test": "Anti-platelet aggregation in platelet-rich plasma of male Japanese white rabbit assessed as inhibition of ADP-induced platelet aggregation preincubated for 15 mins followed by ADP addition measured up to 10 mins by Born's turbidometric method", "assay_type": "functional, cell-free", "conditions": "Oryctolagus cuniculus"}, "[17]": {"test_system": "Rattus norvegicus", "test": "Neuroprotective activity in MCAO-induced brain damage Sprague-Dawley rat model assessed as tightly arranged hippocampal neurons at 2.5 to 10 mg/kg, iv administered immediately after arterial occlusion measured after 24 hrs by H and E staining based analysis", "assay_type": "functional, organism-based", "conditions": "dose 2.5-10 mg/kg"}, "[18]": {"test_system": "Rattus norvegicus", "test": "Neuroprotective activity in MCAO-induced brain damage Sprague-Dawley rat model assessed as transparent cytoplasm at 2.5 to 10 mg/kg, iv administered immediately after arterial occlusion measured after 24 hrs by H and E staining based analysis", "assay_type": "functional, organism-based", "conditions": "dose 2.5-10 mg/kg"}, "[19]": {"test": "Clearance male Sprague-Dawley rat at 10 mg/kg, po measured up to 24 hrs by LC-MS/MS analysis", "assay_type": "ADME, organism-based", "conditions": "in vivo"}, "[20]": {"molecular_target": "P2Y purinoceptor 12 (Rattus norvegicus) (UniProt Q9EPX4)", "sequence (Q9EPX4 whole entry)": "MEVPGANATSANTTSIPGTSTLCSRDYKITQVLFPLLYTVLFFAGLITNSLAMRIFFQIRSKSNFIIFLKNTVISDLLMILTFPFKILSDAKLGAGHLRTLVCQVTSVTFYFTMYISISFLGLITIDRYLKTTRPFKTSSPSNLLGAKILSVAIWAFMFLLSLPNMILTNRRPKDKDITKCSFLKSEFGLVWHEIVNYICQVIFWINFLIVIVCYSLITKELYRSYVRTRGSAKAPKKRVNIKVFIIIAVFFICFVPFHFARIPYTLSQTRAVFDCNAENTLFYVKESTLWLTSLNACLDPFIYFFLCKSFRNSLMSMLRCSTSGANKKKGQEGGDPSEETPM", "test": "Antagonist activity at P2Y12 receptor in platelet-rich plasma of male Sprague-Dawley rat assessed as inhibition of VASP phosphorylation at Ser239 at 30 uM pretreated for 10 mins followed by PGE1/ADP addition measured after 10 mins by ELISA relative to control", "assay_type": "cell-free", "conditions": "time 20.0 min"}, "[21]": {"test": "Half life male Sprague-Dawley rat at 10 mg/kg, iv measured up to 24 hrs by LC-MS/MS analysis", "assay_type": "ADME, organism-based", "conditions": "in vivo"}, "[22]": {"test": "AUC in plasma of male Kunming mouse at 10 mg/kg, iv measured for 0.083 to 24 hrs by LC-MS/MS analysis", "assay_type": "ADME, organism-based", "conditions": "time 0.083-24 hrs"}, "[23]": {"test_system": "Rattus norvegicus", "test": "Neuroprotective activity in MCAO-induced brain damage Sprague-Dawley rat model assessed as reduction in brain infarction size at 10 mg/kg, iv administered immediately after arterial occlusion measured after 24 hrs by TTC staining based analysis relative to control", "assay_type": "functional", "set-up": "scale not given: the % may be the effect or the level left"}, "[24]": {"test_system": "Rattus norvegicus", "test": "Neuroprotective activity in MCAO-induced brain damage Sprague-Dawley rat model assessed as improvement in motor co-ordination administered intravenously immediately after arterial occlusion measured after 24 hrs by Longa's method", "assay_type": "functional, organism-based", "conditions": "dose 2.5-10 mg/kg, route iv"}, "[25]": {"molecular_target": "P2Y purinoceptor 1 (Rattus norvegicus) (UniProt P49651)", "sequence (P49651 whole entry)": "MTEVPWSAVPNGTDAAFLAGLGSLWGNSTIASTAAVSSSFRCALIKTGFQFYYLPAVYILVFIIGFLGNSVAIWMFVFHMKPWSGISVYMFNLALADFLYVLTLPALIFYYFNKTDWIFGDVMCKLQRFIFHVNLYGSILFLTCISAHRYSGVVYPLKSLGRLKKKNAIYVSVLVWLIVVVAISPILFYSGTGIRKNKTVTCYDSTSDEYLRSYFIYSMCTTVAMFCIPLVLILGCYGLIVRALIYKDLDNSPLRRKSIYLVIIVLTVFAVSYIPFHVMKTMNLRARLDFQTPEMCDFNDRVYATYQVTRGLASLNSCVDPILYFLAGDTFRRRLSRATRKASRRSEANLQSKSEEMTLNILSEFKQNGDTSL", "test": "Induction of thermodynamic stability of P2Y1 receptor in rat platelet-rich plasma incubated for 30 mins followed by heat exposure at 61 degreeC for 10 mins by CETSA", "assay_type": "cell-free", "conditions": "dose <= 100.0 µM, time 40.0 min"}}, "note": "Calls of active or inactive are those of the source. The calls are words filed in the database; no cut-off is given here.", "data": [{"molecule": "N#Cc1cccc(Oc2nc(-c3cccc(C#N)c3)ncc2C(=O)O)c1", "values": [{"measurement": "Tmax", "setting": "[1]", "result": 4.98, "unit": "min"}, {"measurement": "Tmax", "setting": "[2]; po, 10 mg/kg, 24 h", "result": 6.12, "unit": "min"}, {"measurement": "inhibition at 2 h, 10 µM", "setting": "[3]", "result": -17.7, "unit": "%"}, {"measurement": "Activity", "setting": "[4]", "result": "Dose-dependent-effect; Activity Comparable To Hnw001, Bptu, Edaravone At 10 Mg/Kg"}, {"measurement": "Activity", "setting": "[5]", "result": 32, "unit": "%"}, {"measurement": "Activity", "setting": "[6]", "result": 21.3, "unit": "%"}, {"measurement": "Activity", "setting": "[7]", "result": 11.1, "unit": "%"}, {"measurement": "IC50", "setting": "[8]", "result": 3.63, "unit": "µM"}, {"measurement": "Activity", "setting": "[9]", "result": 50.6, "unit": "%"}, {"measurement": "Activity", "setting": "[10]", "result": 32, "unit": "%"}, {"measurement": "AUC", "setting": "[11]", "result": 12.81, "unit": "µg·h/g"}, {"measurement": "inhibition in vivo at 10 mg/kg", "setting": "[12]", "result": 47.6, "unit": "%"}, {"measurement": "inhibition", "setting": "[13]", "result": 35.9, "unit": "%"}, {"measurement": "Activity", "setting": "[14]", "result": 4.37, "unit": "nmol/mL"}, {"measurement": "Kp", "setting": "[15]", "result": 2.39}, {"measurement": "IC50", "setting": "[16]", "result": 2.64, "unit": "µM"}, {"measurement": "Activity", "setting": "[17]", "result": "Active"}, {"measurement": "Activity", "setting": "[18]", "result": "Active"}, {"measurement": "CL/F", "setting": "[19]", "result": 169, "unit": "mL/min/kg"}, {"measurement": "inhibition", "setting": "[20]", "result": 29.3, "unit": "%"}, {"measurement": "half-life", "setting": "[21]", "result": 38.5, "unit": "min"}, {"measurement": "AUC", "setting": "[22]", "result": 5360, "unit": "ng·h/mL"}, {"measurement": "Activity", "setting": "[23]", "result": 74.2, "unit": "%"}, {"measurement": "Activity", "setting": "[24]", "result": "Dose-dependent-effect; Outperformed Edaravone And Hnw001 At 10 Mg/Kg"}, {"measurement": "Activity", "setting": "[25]", "result": "Dose-dependent-effect"}]}, {"molecule": "N#Cc1cccc(-c2nc(C(F)F)c(C(=O)O)n2OCc2csc(N)n2)c1", "values": [{"measurement": "Tmax", "setting": "[1]", "result": 4.98, "unit": "min"}, {"measurement": "Tmax", "setting": "[2]; male, Sprague-Dawley, read-out: Tmax", "result": 10, "unit": "min"}, {"measurement": "inhibition at 2 h, 10 µM", "setting": "[3]", "result": -13.5, "unit": "%"}, {"measurement": "Activity", "setting": "[4]", "result": "Dose-dependent-effect; Activity Comparable To Hnw001, Bptu, Edaravone At 10 Mg/Kg"}, {"measurement": "Activity", "setting": "[5]", "result": 32, "unit": "%"}, {"measurement": "Activity", "setting": "[6]", "result": 23.3, "unit": "%"}, {"measurement": "Activity", "setting": "[7]", "result": 20.9, "unit": "%"}, {"measurement": "IC50", "setting": "[8]", "result": 3.35, "unit": "µM"}, {"measurement": "Activity", "setting": "[9]", "result": 45.9, "unit": "%"}, {"measurement": "Activity", "setting": "[10]", "result": 40.6, "unit": "%"}, {"measurement": "AUC", "setting": "[11]", "result": 0.7, "unit": "µg·h/g"}, {"measurement": "inhibition in vivo at 10 mg/kg", "setting": "[12]", "result": 43.2, "unit": "%"}, {"measurement": "inhibition", "setting": "[13]", "result": 24.5, "unit": "%"}, {"measurement": "Activity", "setting": "[14]", "result": 4.37, "unit": "nmol/mL"}, {"measurement": "Kp", "setting": "[15]", "result": 1.08}, {"measurement": "IC50", "setting": "[16]", "result": 1.86, "unit": "µM"}, {"measurement": "Activity", "setting": "[17]", "result": "Active"}, {"measurement": "Activity", "setting": "[18]", "result": "Active"}, {"measurement": "CL/F", "setting": "[19]", "result": 4630, "unit": "mL/min/kg"}, {"measurement": "inhibition", "setting": "[20]", "result": 18.4, "unit": "%"}, {"measurement": "half-life", "setting": "[21]", "result": 14.9, "unit": "min"}, {"measurement": "AUC", "setting": "[22]", "result": 650, "unit": "ng·h/mL"}, {"measurement": "Activity", "setting": "[23]", "result": 51.5, "unit": "%"}, {"measurement": "Activity", "setting": "[24]", "result": "Dose-dependent-effect; Outperformed Edaravone And Hnw001 At 10 Mg/Kg"}, {"measurement": "Activity", "setting": "[25]", "result": "Dose-dependent-effect"}]}]}
